Read-outs that look alike come from different tables or passages of the source.
What was measured:
[1] = tested on: Spared Nerve Injury (SNI) rats; assay: Spared Nerve Injury (SNI) model, von Frey; type: in vivo, rat
Experimental: All animal experiments were carried out according to the Guide for the Care and Use of Laboratory Animals (2011 edition) and approved by the Israel National Institutional Animal Care and Use Committee (IACUC). Young adult male SD rats (Envigo RMS, Israel), were used for in vivo efficacy: Spared Nerve Injury (SNI), Distal Tibial Injury (DTI) and Post-operative Pain (POP), 200-220 grams, Chronic Post-Ischemia Pain (CPIP) 275-325 grams, Monosodium iodoacetate-induced osteoarthritis (MIA-OA) 180-220 grams; for in vivo safety: 200-250 grams at study initiation. […] The health status of the animals used in this study was examined upon their arrival. Only animals in good health were acclimatized to laboratory conditions and were used in the studies. All studies were performed following at least five days of animal acclimation. During acclimation and throughout the entire study duration, animals were housed within a limited-access rodent facility and kept in groups with a maximum of 2-3 rats per polypropylene cage. The cages were fitted with solid bottoms and filled with sterile wood shavings as bedding material. Animals were provided ad libitum with a commercial, sterile rodent diet and had free access to drinking water that was supplied to each cage via polyethylene bottles with stainless steel sipper tubes. A feed lot analysis of the diet batch used in the study was included in the archives with the study data. Water was monitored periodically. Plastic cylinders for playing and hiding and wooden balls or sticks were added to the cages for environmental enrichment.
SNI: The SNI procedure consisted of ligating and dissecting the tibial and common peroneal nerves, thus sparing the sural nerve. Prior to surgery, a dose of 0.03 mg/kg buprenorphine (Temgesic®) was administered to animals as a prophylaxis to alleviate the operative and postoperative pain unrelated to neuropathy. Next, animals were anesthetized with a combination of medetomidine/ketamine sodium IP. While under anesthesia a medio caudal incision of 4-5 mm parallel to the left femur was cut on shaved and disinfected skin. The sciatic nerve was exposed from underneath the muscle layer and isolated gently from the surrounding connective tissue, using curved and blunt forceps. The tibial and common peroneal nerves were first tightly ligated with double knot of 6-0 silk suture, proximally and immediately distal to the sciatic bifurcation. Thereafter, the nerves which run as a pair as physically attached to each other were cut at sites close to the ligatures, thereby removing a length of approximately 0.5 mm of the nerves, necessary to avoid the formation of any re-connection to the nerves. This procedure led to complete denervation of areas of tibial and peroneal innervation in the plantar paw, while neuropathy was developed upon the sural territories. Special care was taken not to manipulate the sural nerve, which thus was left intact. The muscle layers and skin were sutured, and animals were allowed to recover. 0.03 mg/kg buprenorphine SC was administered on postoperative days 1-2, every 12 hours, starting from the evening of Day 0. Rehydration with 4 ml of sterile saline IP was provided directly after the surgery, continuing twice a day for 7 days. The sural nerve innervates the lateral longitudinal third of the plantar paw and therefore, mechanical sensitivity was assessed in this area.
The selection of animals was performed on day 13 post-operation before animals were placed in their experimental groups. Animals with a pain threshold of <4 grams for an operated leg following Von Frey testing were included in the study. To form homogenous treatment groups, all the selected animals were grouped using a random sampling method on study day 13, to form groups with similar pain threshold mean. For blinding purposes, the researcher who dosed the animals with test items was different than the researcher who conducted the VF tests. […]

CYP2C8 = target: T1, CYP2C8 (Homo sapiens, UniProt P10632); assay: CYP inhibition / time-dependent inhibition, CYP2C8_Amodiaquine; type: in vitro ADME; details: role: inhibitor
T1 construct: pre-incubation of the human liver microsomes with the test compound; tissue Corning; host or cells: human liver microsomes
T1 sequence (P10632 1-490): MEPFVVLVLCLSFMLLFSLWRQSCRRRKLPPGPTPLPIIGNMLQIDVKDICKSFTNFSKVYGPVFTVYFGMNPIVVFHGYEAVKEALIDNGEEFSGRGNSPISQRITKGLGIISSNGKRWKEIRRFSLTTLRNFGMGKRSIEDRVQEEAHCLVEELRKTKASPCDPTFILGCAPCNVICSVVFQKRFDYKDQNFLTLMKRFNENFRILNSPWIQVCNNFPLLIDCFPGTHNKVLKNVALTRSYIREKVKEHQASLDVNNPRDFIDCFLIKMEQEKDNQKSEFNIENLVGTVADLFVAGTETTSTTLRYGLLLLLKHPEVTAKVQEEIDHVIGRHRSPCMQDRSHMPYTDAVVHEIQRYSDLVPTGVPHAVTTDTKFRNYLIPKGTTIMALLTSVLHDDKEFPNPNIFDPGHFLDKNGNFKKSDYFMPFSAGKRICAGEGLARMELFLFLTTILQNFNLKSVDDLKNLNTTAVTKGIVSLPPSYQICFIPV
Experimental: (§1) The time-dependent inactivation potency of the test compound to CYP enzymatic activities was assessed by the pre-incubation of the human liver microsomes with the test compound in the presence and absence of NADPH, followed by the incubation with the discrete marker substrates, as follows.
(§2) Pre-incubation with human liver microsomes (HLMs): The TDI inactivation potency on CYP enzymatic activities was evaluated through pre-incubation with HLMs (Corning). A liver microsome mixture at a concentration of 0.1 mg/mL, and the test compound at 8 different concentrations (0, 0.05, 0.165, 0.5, 1.65, 5.0, 16.5, or 50.0 μM) was warmed at 37° C. for 10 minutes. Concurrently, a set of known time-dependent inactivators was also prepared in duplicate for comparison. Following this, NADPH (1.0 mM) was added to one group (Group 1), and an equal volume of potassium phosphate buffer to the second group (Group 2), marking the beginning of a 30-minute pre-incubation at 37° C.
(§3) Incubation: After pre-incubation, the marker substrate, or marker substrate plus NADPH was added to the mixture, thereby initiating the incubation. The duration of the incubation was dependent on the type of CYP isoform being evaluated. For example, with the CYP3A isoform, the mixture was incubated over 3 minutes utilizing midazolam as the marker substrate (2.0 μM), verapamil as the standard inactivator (3.5 μM).
(§4) Termination of Reaction: Following the incubation, ice-cooled acetonitrile containing the internal standard (IS) was added to halt the reactions. Metabolites generated from the marker substrates were then measured via LC-MS/MS, assessed based on peak area ratios of the analyte to IS.

[2] = CYP inhibition / time-dependent inhibition, CYP3A4_Testosterone; type: in vitro ADME; details: human, liver microsomes, role: inhibitor, substrate testosterone
Experimental: as §1, §2, §3, §4

For `O=C(Cc1cncc(-n2cc(Cl)c3cc(Cl)cc(Cl)c32)c1)N[C@@H]1COC[C@H]1O` [Compound 661], the “PWT efficacy” value ([1]; 2 mg/kg PO) was “although not reaching statistical significance, showed an efficacious trend”, the “Reversal of PWT” value ([1]; 20 mg/kg PO, 4 hour post-dose) was 53% and the “PWT efficacy” value ([1]; 20 mg/kg PO, up to 8 hour post-dose) was “remained statistically significant up to 8 hour post-dose”. The “Reversal of mechanical PWT” value ([1]; 100 mg/kg oral, 6 hour post-dose) was 47.2%, the IC50 (CYP2C8; (+)NADPH pre-incubation, substrate amodiaquine, read-out: IC50 (+)NADPH CYP2C8_Amodiaquine) was 16.5 µM and the IC50 (CYP2C8; (−)NADPH pre-incubation, substrate amodiaquine, read-out: IC50 (−)NADPH CYP2C8_Amodiaquine) was 14.3 µM. It also gave an IC50 at 0.5 h ([2]; (+)NADPH pre-incubation) of 7.36 µM and an IC50 at 0.5 h ([2]; (−)NADPH pre-incubation) of 10.1 µM.
With `O=C(Cc1nccc(-n2cc(Cl)c3cc(Cl)cc(Cl)c32)n1)NC1COCC1O` (stereo not drawn) [Compound 760] the “Pain relief in SNI” value ([1]; 3-30 mg/kg PO) was “pain relief comparable to Pregabalin's high and impairing dose”, the minimal effective dose ([1]; Rattus norvegicus, po) was 3 to 30 mg/kg and the IC50 (CYP2C8; Table 9, read-out: CYP inhibition IC50 CYP2C8) was 49.2 µM. For the same compound, the IC50 ([2]; Table 9, read-out: CYP inhibition IC50 CYP3A-Testosterone) was 19.8 µM.
